Results on 13 compounds are retold here after PMC3365592 (European Journal of Medicinal Chemistry, 2012).

The structures appear in SMILES notation.

The first experiment deals with T1, 5-HT1A receptors (Rattus norvegicus, UniProt P19327).
T1 sequence (P19327 1-422): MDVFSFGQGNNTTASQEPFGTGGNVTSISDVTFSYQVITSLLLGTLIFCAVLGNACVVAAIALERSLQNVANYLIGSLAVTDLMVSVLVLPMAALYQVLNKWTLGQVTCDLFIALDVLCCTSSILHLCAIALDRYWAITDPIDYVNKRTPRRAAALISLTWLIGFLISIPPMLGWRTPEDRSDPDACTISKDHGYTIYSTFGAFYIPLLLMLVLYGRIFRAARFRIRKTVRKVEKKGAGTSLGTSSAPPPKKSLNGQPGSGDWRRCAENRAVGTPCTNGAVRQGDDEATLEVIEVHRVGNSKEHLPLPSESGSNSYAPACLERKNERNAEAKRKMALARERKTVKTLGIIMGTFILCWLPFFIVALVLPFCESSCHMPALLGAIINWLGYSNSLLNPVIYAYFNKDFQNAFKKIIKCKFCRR
Briefly: 5-HT1A receptor binding experiments.
Conditions: not given
`O=C1CCCC(=O)N1CCCCN1CCN(c2ccc3cc([N+](=O)[O-])ccc3n2)CC1` [Compound 4, 1-{4-[4-(6-Nitro-quinolin-2-yl)-piperazin-1-yl]-butyl}-piperidine-2,6-dione] displayed a Ki of 10600 ± 3500 nM.
In the case of `CC1CN(c2ccc3cc([N+](=O)[O-])ccc3n2)CCN1CCCCN1C(=O)CCCC1=O` (stereo not shown) [Compound 3, 1-{4-[2-Methyl-4-(6-nitroquinolin-2-yl)piperazin-1-ylo]butyl}piperidine-2,6-dione], the affinity corresponds to a Ki of 711 ± 21 nM.
Same read-out and setting: the figure for `CC1(C)CC(=O)N(CCCCN2CCN(c3ccc4cc([N+](=O)[O-])ccc4n3)CC2)C(=O)C1` [Compound 8, 4,4-Dimethyl-1-{4-[4-(6-nitro-quinolin-2-yl)-piperazin-1-yl]-butyl}-piperidine-2,6-dione] is 2100 ± 400 nM.
As to `O=C1CC2(CCCC2)CC(=O)N1CCCCN1CCN(c2ccc3cc([N+](=O)[O-])ccc3n2)CC1` [Compound 6, 8-{4-[4-(6-Nitro-quinolin-2-yl)-piperazin-1-yl]-butyl}-8-aza-spiro[4.5]decane-7,9-dione], the affinity corresponds to a Ki of 1100 ± 400 nM.
Same read-out and setting: the figure for `CC1(C)CC(=O)N(CCCCN2CCN(c3ccc4c(Cl)cccc4n3)CC2)C(=O)C1` [Compound 10, 1-{4-[4-(5-Chloroquinolin-2-yl)piperazin-1-yl]butyl}-4,4-di-methylopiperydine-2,6-dione] is 1400 ± 100 nM; for `O=C1c2ccccc2C(=O)N1CCCCN1CCN(c2ccc3cc([N+](=O)[O-])ccc3n2)CC1` [Compound 9, 2-{4-[4-(6-Nitro-quinolin-2-yl)-piperazin-1-yl]-butyl}-isoindole-1,3-dione] it is 59000 ± 23100 nM.

The next experiment deals with T1, 5-HT1A receptors.
Assay: not given
Conditions: read-out: 5-HT1A Ki ± SEM; cited from earlier work.
For `O=C1c2ccccc2C(=O)N1CCCCN1CCN(c2ccc3ccccc3n2)CC1` [Compound 13], the Ki was 39 nM.
Take `CC1CN(c2ccc3ccccc3n2)CCN1CCCCN1C(=O)CC2(CCCC2)CC1=O` (stereo not shown) [Compound 16]: the Ki is 24 ± 3 nM.
Regarding `CC1(C)CC(=O)N(CCCCN2CCN(c3ccc4ccccc4n3)CC2)C(=O)C1` [Compound 19], the inhibition constant (Ki) was 11 ± 2 nM.
Regarding `CC1CN(c2ccc3ccccc3n2)CCN1CCCCN1C(=O)c2ccccc2C1=O` (stereo not shown) [Compound 12], the inhibition constant Ki was 13 nM.
Turning to `CC1CN(c2ccc3ccccc3n2)CCN1CCCCN1C(=O)CC(C)(C)CC1=O` (stereo not shown) [Compound 18], the inhibitory constant (Ki) was 15 ± 3 nM.
Regarding `CC1CN(c2ccc3ccccc3n2)CCN1CCCCN1C(=O)CCCC1=O` (stereo not shown) [Compound 15], the Ki is 37 ± 6 nM.
As to `CC1CN(c2ccc3ccccc3n2)CCN1CCCN1C(=O)c2ccccc2C1=O` (stereo not shown) [Compound 14], the inhibition constant Ki was 275 nM.

Usually Ki stands for the equilibrium dissociation constant of an inhibitor or competing ligand from its target.
